From US20250163104A1, “MACROCYCLIC IMMUNOMODULATORS” (priority 2021, published 2025)
Where a SMILES comes first, the peptide text is derived from it. Bridges are numbered along the chain shown (N, C = ends). [ ]: non-standard residue; d: D form. The star is where a group is joined. Phe(3,4-Cl2) = N[C@@H](Cc1ccc(Cl)c(Cl)c1)C(=O)O; Phe(3-CF3) = N[C@@H](Cc1cccc(C(F)(F)F)c1)C(=O)O; Ala(morpholin-4-yl) = N[C@@H](CN1CCOCC1)C(=O)O; Phe(4-COOH) = N[C@@H](Cc1ccc(C(=O)O)cc1)C(=O)O; Bip = N[C@@H](Cc1ccc(-c2ccccc2)cc1)C(=O)O; Phe(3-CN) = N#Cc1cccc(C[C@H](N)C(=O)O)c1; Phe(3-Me) = Cc1cccc(C[C@H](N)C(=O)O)c1; Val(3-OH) = CC(C)(O)[C@H](N)C(=O)O; Aha = [N-]=[N+]=NCC[C@H](N)C(=O)O; 4Pal = N[C@@H](Cc1ccncc1)C(=O)O; 2Thi = N[C@@H](Cc1cccs1)C(=O)O; Cha = N[C@@H](CC1CCCCC1)C(=O)O; Cit = NC(=O)NCCC[C@H](N)C(=O)O; Carboxymethyl = O=C(O)C*; Orn = NCCC[C@H](N)C(=O)O; Pra = C#CC[C@H](N)C(=O)O; Dab = NCC[C@H](N)C(=O)O; Dap = NC[C@H](N)C(=O)O

target: T1, human PD-1 / PD-L1-Ig binding on Jurkat cell line over-expressing human PD-1 (Jurkat-PD-1) (Homo sapiens, UniProt Q15116); assay: Jurkat-PD-1 Cell Binding High-Content Screening Assay (CBA); assay type: cell-based; conditions: Jurkat-PD-1 cells, PE-labeled PD-L1-Ig 20 nM final; read-out: Jurkat HPD1_PDL1 IC50
T1 construct: expressed in transfected cells; host or cells: Jurkat
Outline: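 Cell-bound PE-labeled PD-L1-Ig (20 nM final, 1 h) measured by high-content imaging after fixation and Hoechst 33342 counterstain. Compound was applied first for 2 h at 37° C. to Jurkat cells over-expressing human PD-1 in DMEM with 10% FCS.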

T1 sequence (Q15116 25-288): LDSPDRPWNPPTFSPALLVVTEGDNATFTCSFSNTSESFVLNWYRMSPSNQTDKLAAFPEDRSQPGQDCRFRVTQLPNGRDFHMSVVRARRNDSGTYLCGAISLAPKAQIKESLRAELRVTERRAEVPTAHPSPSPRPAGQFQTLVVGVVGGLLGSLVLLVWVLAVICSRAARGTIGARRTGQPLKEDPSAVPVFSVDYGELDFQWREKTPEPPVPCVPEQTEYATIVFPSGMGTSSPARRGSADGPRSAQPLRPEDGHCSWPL

Row | SMILES | IC50
1 | CC(C)C[C@@H]1NC(=O)[C@H](CCN)NC(=O)[C@@H](CC(C)C)NC(=O)[C@H](CCN)NC(=O)[C@H](CCCNC(N)=O)NC(=O)[C@H](Cc2ccc(-c3ccccc3)cc2)NC(=O)[C@H](C(C)C)NC(=O)[C@H](Cc2c[nH]c3ccccc23)NC(=O)[C@H](CC(=O)O)NC(=O)[C@H](Cc2ccc(O)cc2)NC(=O)[C@H](CC(N)=O)NC(=O)CSC[C@@H](C(=O)N[C@@H](C)C(N)=O)NC(=O)[C@H](CO)NC(=O)[C@H](C(C)C)NC1=O [Compound 1111] ({CH2CO}-NYDWV[Bip][Cit][Dab][dL][Dab]LVSCA-NH2; thioether N-14) | 37.9 nM
2 | CC(C)C[C@@H]1NC(=O)[C@H](CCN)NC(=O)[C@@H](CC(C)C)NC(=O)[C@H](CCCN)NC(=O)[C@H](CCC(=O)O)NC(=O)[C@H](Cc2ccc(-c3ccccc3)cc2)NC(=O)[C@H](C(C)C)NC(=O)[C@H](Cc2c[nH]c3ccccc23)NC(=O)[C@H](CC(=O)O)NC(=O)[C@H](Cc2ccc(O)cc2)NC(=O)[C@H](CC(N)=O)NC(=O)CSC[C@@H](C(=O)N[C@@H](C)C(N)=O)NC(=O)[C@H]([C@@H](C)O)NC(=O)[C@H](C(C)C)NC1=O [Compound 1016] ({CH2CO}-NYDWV[Bip]E[Orn][dL][Dab]LVTCA-NH2; thioether N-14) | 31.9 nM
3 | C#CC[C@H](NC(=O)[C@@H]1CSCC(=O)N[C@@H](CN)C(=O)N[C@@H](CCN=[N+]=[N-])C(=O)N[C@@H](CC(=O)O)C(=O)N[C@@H](Cc2c[nH]c3ccccc23)C(=O)N[C@@H](C(C)C)C(=O)N[C@@H](Cc2ccc(-c3ccccc3)cc2)C(=O)N[C@@H](CCC(=O)O)C(=O)N[C@@H](CCCN)C(=O)N[C@H](CC(C)C)C(=O)N[C@@H](CCN)C(=O)N[C@@H](CC2CCCCC2)C(=O)N[C@@H](C(C)C)C(=O)N[C@@H]([C@@H](C)O)C(=O)N1)C(N)=O [Compound 1540] ({CH2CO}-[Dap][Aha]DWV[Bip]E[Orn][dL][Dab][Cha]VTC[Pra]-NH2; thioether N-14) | 87.4 nM
4 | CC[C@H](C)[C@@H]1NC(=O)[C@H](Cc2ccc(-c3ccccc3)cc2)NC(=O)[C@H](C(C)C)NC(=O)[C@H](Cc2cccc(C)c2)NC(=O)[C@H](CC(=O)O)NC(=O)[C@H](Cc2ccc(C(=O)O)cc2)NC(=O)[C@H](Cc2ccc(OCC(=O)O)cc2)NC(=O)CSC[C@@H](C(N)=O)NC(=O)[C@H]([C@@H](C)O)NC(=O)[C@H](C(C)C)NC(=O)[C@H](CC(C)C)NC(=O)[C@H](CCN)NC(=O)[C@@H](CC(C)C)NC(=O)[C@H](CCCN)NC1=O [Compound 1555] ({CH2CO}-Y(Carboxymethyl)[Phe(4-COOH)]D[Phe(3-Me)]V[Bip]I[Orn][dL][Dab]LVTC-NH2; thioether N-14) | 43.3 nM
5 | CC(C)C[C@@H]1NC(=O)[C@H](CCN)NC(=O)[C@@H](CC(C)C)NC(=O)[C@H](CCCCN)NC(=O)[C@H](CCCNC(N)=O)NC(=O)[C@H](Cc2ccc(-c3ccccc3)cc2)NC(=O)[C@H](C(C)C)NC(=O)[C@H](Cc2c[nH]c3ccccc23)NC(=O)[C@H](CC(=O)O)NC(=O)[C@H](Cc2ccc(O)cc2)NC(=O)[C@H](CC(N)=O)NC(=O)CSC[C@@H](C(=O)NCC(N)=O)NC(=O)[C@H]([C@@H](C)O)NC(=O)[C@H](C(C)C)NC1=O [Compound 1116] ({CH2CO}-NYDWV[Bip][Cit]K[dL][Dab]LVTCG-NH2; thioether N-14) | 38.5 nM
6 | CC(C)C[C@@H]1NC(=O)[C@H](Cc2c[nH]c3ccccc23)NC(=O)[C@H](CC(=O)O)NC(=O)[C@H](Cc2ccc(O)cc2)NC(=O)[C@H](Cc2ccccc2)NC(=O)CSC[C@@H](C(=O)NCC(N)=O)NC(=O)[C@H](CO)NC(=O)[C@H](C(C)C)NC(=O)[C@H](CC(C)C)NC(=O)[C@H](CC(N)=O)NC(=O)[C@@H](C)NC(=O)[C@H](CCCN)NC(=O)[C@H](C(C)C)NC(=O)[C@H](Cc2ccc(-c3ccccc3)cc2)NC1=O [Compound 1093] ({CH2CO}-FYDWL[Bip]V[Orn][dA]NLVSCG-NH2; thioether N-14) | 120 nM
7 | CC(C)C[C@H]1NC(=O)[C@H](CCCN)NC(=O)[C@H](CCC(=O)O)NC(=O)[C@H](Cc2ccc(-c3ccccc3)cc2)NC(=O)[C@H](C(C)C)NC(=O)[C@H](Cc2cccc(C(F)(F)F)c2)NC(=O)[C@H](CC(=O)O)NC(=O)[C@H](Cc2ccc(OCC(=O)O)cc2)NC(=O)[C@H](Cc2ccc(OCC(=O)O)cc2)NC(=O)CSC[C@@H](C(=O)N[C@@H](C)C(N)=O)NC(=O)[C@H]([C@@H](C)O)NC(=O)[C@H](C(C)C)NC(=O)[C@H](CC2CCCCC2)NC(=O)[C@H](CCN)NC1=O [Compound 1465] | 27.4 nM
8 | CC[C@H](C)[C@@H]1NC(=O)[C@H](Cc2ccc(-c3ccccc3)cc2)NC(=O)[C@H](C(C)C)NC(=O)[C@H](Cc2cccc(C(F)(F)F)c2)NC(=O)[C@H](CC(=O)O)NC(=O)[C@H](Cc2ccncc2)NC(=O)[C@H](CN)NC(=O)CSC[C@@H](C(=O)N[C@@H](C)C(N)=O)NC(=O)[C@H]([C@@H](C)O)NC(=O)[C@H](C(C)C)NC(=O)[C@H](CC2CCCCC2)NC(=O)[C@H](CCN)NC(=O)[C@@H](CC(C)C)NC(=O)[C@H](CCCN)NC1=O [Compound 1564] ({CH2CO}-[Dap][4Pal]D[Phe(3-CF3)]V[Bip]I[Orn][dL][Dab][Cha]VTCA-NH2; thioether N-14) | 36.1 nM
9 | CCC(C)[C@@H]1NC(=O)[C@H](Cc2ccc(-c3ccccc3)cc2)NC(=O)[C@H](C(C)C)NC(=O)[C@H](Cc2c[nH]c3ccccc23)NC(=O)[C@H](CC(=O)O)NC(=O)[C@H](Cc2ccc(OCC(=O)O)cc2)NC(=O)[C@H](Cc2cccc3ccccc23)NC(=O)CSC[C@@H](C(=O)N[C@@H](C)C(N)=O)NC(=O)[C@H](C(C)O)NC(=O)[C@H](C(C)C)NC(=O)[C@H](CC2CCCCC2)NC(=O)[C@H](CCN)NC(=O)[C@@H](CC(C)C)NC(=O)[C@H](CCCN)NC1=O (stereo partly drawn) [Compound 2521] | 38.1 nM

The next molecules have a lower IC50 than those just listed; values first:

Row | IC50 | SMILES
10 | 7.3 nM | C#CC[C@H](NC(=O)[C@H](CCN)NC(=O)[C@@H]1CSCC(=O)N[C@@H](CN)C(=O)N[C@@H](Cc2ccc(C(=O)O)cc2)C(=O)N[C@@H](CC(=O)O)C(=O)N[C@@H](Cc2cccc(C)c2)C(=O)N[C@@H](Cc2ccc(C(=O)O)cc2)C(=O)N[C@@H](Cc2ccc(-c3ccccc3)cc2)C(=O)N[C@@H](Cc2ccc(C(=O)O)cc2)C(=O)N[C@@H](CCCN)C(=O)N[C@H](CC(C)C)C(=O)N[C@@H](CCN)C(=O)N[C@@H](CC2CCCCC2)C(=O)N[C@@H](C(C)(C)O)C(=O)N[C@@H](CO)C(=O)N1)C(N)=O [Compound 1845] ({CH2CO}-[Dap][Phe(4-COOH)]D[Phe(3-Me)][Phe(4-COOH)][Bip][Phe(4-COOH)][Orn][dL][Dab][Cha][Val(3-OH)]SC[Dab][Pra]-NH2; thioether N-14)
11 | 10.2 nM | CC(C)C[C@H]1NC(=O)[C@H](CCCN)NC(=O)[C@H](CCC(=O)O)NC(=O)[C@H](Cc2ccc(-c3ccccc3)cc2)NC(=O)[C@H](C(C)C)NC(=O)[C@H](Cc2cccs2)NC(=O)[C@H](CC(=O)O)NC(=O)[C@H](Cc2ccncc2)NC(=O)[C@H](Cc2ccccc2)NC(=O)CSC[C@@H](C(=O)N[C@@H](C)C(N)=O)NC(=O)[C@H]([C@@H](C)O)NC(=O)[C@H](C(C)C)NC(=O)[C@H](CC2CCCCC2)NC(=O)[C@H](CCN)NC1=O [Compound 2200] ({CH2CO}-F[4Pal]D[2Thi]V[Bip]E[Orn][dL][Dab][Cha]VTCA-NH2; thioether N-14)
12 | 6.1 nM | Cc1cccc(C[C@@H]2NC(=O)[C@H](CC(=O)O)NC(=O)[C@H](Cc3ccncc3)NC(=O)[C@H](CN)NC(=O)CSC[C@@H](C(=O)N[C@@H](C)C(N)=O)NC(=O)[C@H]([C@@H](C)O)NC(=O)[C@H](C(C)C)NC(=O)[C@H](CC(C)C)NC(=O)[C@H](CCN)NC(=O)[C@@H](CC(C)C)NC(=O)[C@H](CCCN)NC(=O)[C@H](C(C)C)NC(=O)[C@H](Cc3ccc(-c4ccccc4)cc3)NC(=O)[C@H](C(C)C)NC2=O)c1 [Compound 1223] ({CH2CO}-[Dap][4Pal]D[Phe(3-Me)]V[Bip]V[Orn][dL][Dab]LVTCA-NH2; thioether N-14)
13 | 2.3 nM | CC(C)C[C@H]1NC(=O)[C@H](CCCN)NC(=O)[C@H](Cc2ccc(C(=O)O)cc2)NC(=O)[C@H](Cc2ccc(-c3ccccc3)cc2)NC(=O)[C@H](Cc2ccc(Cl)c(Cl)c2)NC(=O)[C@H](Cc2cccc(C(F)(F)F)c2)NC(=O)[C@H](CC(=O)O)NC(=O)[C@H](Cc2ccc(C(=O)O)cc2)NC(=O)[C@H](CN2CCOCC2)NC(=O)CSC[C@@H](C(=O)N[C@@H](CCN)C(N)=O)NC(=O)[C@H](CCC(=O)O)NC(=O)[C@H](C(C)C)NC(=O)[C@H](CC2CCCCC2)NC(=O)[C@H](CCN)NC1=O [Example 2745] ({CH2CO}-[Ala(morpholin-4-yl)][Phe(4-COOH)]D[Phe(3-CF3)][Phe(3,4-Cl2)][Bip][Phe(4-COOH)][Orn][dL][Dab][Cha]VEC[Dab]-NH2; thioether N-14)
14 | 10.7 nM | Cc1cccc(C[C@@H]2NC(=O)[C@H](CC(=O)O)NC(=O)[C@H](Cc3cccc(C#N)c3)NC(=O)[C@H](Cc3ccncc3)NC(=O)CSC[C@@H](C(=O)N[C@@H](CCN)C(N)=O)NC(=O)[C@H](CO)NC(=O)[C@H](C(C)(C)O)NC(=O)[C@H](CC3CCCCC3)NC(=O)[C@H](CCN)NC(=O)[C@@H](CC(C)C)NC(=O)[C@H](CCCN)NC(=O)[C@H](Cc3ccc(OCC(=O)O)cc3)NC(=O)[C@H](Cc3ccc(-c4ccccc4)cc3)NC(=O)[C@H](Cc3ccc(C(=O)O)cc3)NC2=O)c1 [Compound 2626] ({CH2CO}-[4Pal][Phe(3-CN)]D[Phe(3-Me)][Phe(4-COOH)][Bip]Y(Carboxymethyl)[Orn][dL][Dab][Cha][Val(3-OH)]SC[Dab]-NH2; thioether N-14)
15 | 11.9 nM | Cc1cccc(C[C@@H]2NC(=O)[C@H](CC(=O)O)NC(=O)[C@H](Cc3ccc(OCC(=O)O)cc3)NC(=O)[C@H](CN)NC(=O)CSC[C@@H](C(N)=O)NC(=O)[C@H](CCCN)NC(=O)[C@H](C(C)C)NC(=O)[C@H](CC3CCCCC3)NC(=O)[C@H](CCN)NC(=O)[C@@H](CC(C)C)NC(=O)[C@H](CCCN)NC(=O)[C@H](Cc3ccc(O)cc3)NC(=O)[C@H](Cc3ccc(-c4ccccc4)cc3)NC(=O)[C@H](C(C)C)NC2=O)c1 [Compound 2264] ({CH2CO}-[Dap]Y(Carboxymethyl)D[Phe(3-Me)]V[Bip]Y[Orn][dL][Dab][Cha]V[Orn]C-NH2; thioether N-14)
